The term Ki denotes the equilibrium dissociation constant of an inhibitor or competing ligand from its target. By AUC(0-t) is commonly meant the area under the concentration-time curve up to a stated or last time point. By Cmax is commonly meant the highest concentration seen after dosing. For orientation: Tmax means the time at which the peak concentration occurs. As a reminder, the half-life is how long it takes for the measured level to halve. The low end stands for fast loss, the high end for slow loss. By bioavailability is commonly meant dose-corrected exposure relative to a reference, in per cent. A high value points to good availability.

The structures appear in SMILES notation. Where a name gives a salt, the structure may show the parent alone. Read-outs that look alike come from different tables or passages of the source.

We go through 18 compounds from patent publication US8735423B2, “Bicyclic compounds as α4β2 nicotinic acetylcholine receptor ligands” (priority 2009, dated 2014).

Series [1] concerns the target Human or Rat Nicotinic Acetylcholine α4β2 receptor (UniProt P09483+P12390). Nature of the series: Binding assay for Human or Rat Nicotinic Acetylcholine α4β2 receptor ([3H] Cytisine). The settings on record: [3H] Cytisine 2.5 nM, rat brain frontal cortex or recombinant human cDNA expressed in CHO cells. Here is the method: Binding assay for Human or Rat Nicotinic Acetylcholine α4β2 receptor
Compounds can be evaluated according to the following procedures.
Materials and Methods: • Receptor source: Rat brain frontal cortex or recombinant human cDNA expressed in CHO cells • Radioligand: [^3H] Cytisine 15-40 Ci/mmol • Final ligand concentration—[2.5 nM] • Non-specific determinant: Epibatidine-[0.1 μM] • Reference compound: Epibatidine • Positive control: Epibatidine Incubation Conditions:
Increasing concentrations of test compounds or standard were incubated with membrane receptors and radioligand in 120 mM NaCl, 2.5 mM KCl, 1 mM CaCl2, 1 mM MgCl2 and 50 mM TRIS-HCl (pH 7.4) for 60 minutes at room temperature. The reaction was terminated by rapid vacuum filtration onto the glass fiber filters. Radioactivity trapped onto the filters was determined and compared to the control values in order to ascertain any interactions of the test compound(s) with either cloned human or rat receptor binding site.
Literature Reference: Bunnelle W. H., Daanen J. F., Ryther K. B., Schrimpf M. R., Dart M. J., Gelain A., Meyer M. D., Frost J. M., Anderson D. J., Buckley M., Curzon P., Cao Y-J., Puttfarcken P., Searle X., Ji J., Putman C. B., Surowy C., Toma L. and Barlocco D. Structure-Activity Studies and Analgesic Efficacy of N-(3-Pyridinyl)-Bridged Bicyclic Diamines, Exceptionally Potent Agonists at Nicotinic Acetylcholine Receptors. J. Med. Chem. 2007, 50, […].

The target of series [2] is T1, recombinant human α4β2 nicotinic acetylcholine receptor (Homo sapiens, UniProt P17787+P43681).
T1 construct: expressed in transfected cells
Nature of the series: Determination of IC50 and Kb values, aequorin luminescence assay in CHO cells. Type of series: cell-based. As for the experimental part: Determination of IC50 and Kb Values for Nicotinic Acetylcholine α4β2 Receptor Ligands
A stable CHO cell line expressing recombinant human α4β2 nicotinic acetylcholine receptor transiently expressing aequorin protein was used for cell-based assay. The assay offers a non-radioactive based approach to determine binding of a compound to ligand gated ion channels. In this specific assay, the level of intracellular calcium which is modulated by activation or inhibition of the channel is measured. Both the channel and aequorin genes are expressed at high level under the control of powerful CMV promotor.
The above cells were grown in 96 well clear bottom white plates in Hams F12 medium containing 10% fetal bovine serum (FBS). Prior to the addition of compounds and/or agonist, cells were serum starved for six hours. Coelentarazine (a prosthetic group for aequorin protein) was added in the medium containing 0.1% dialyzed serum and incubated overnight at 27° C. Cells were washed with assay buffer and increasing concentration of the test compound or standard were added to the plate for antagonist mode. A fixed concentration of the agonist (eipbatidine) was injected into the plate and luminescence was measured for 10 seconds. For evaluation of the compound in agonist mode, increasing concentration of the standard or test compound was injected and the luminescence was measured. Luminescence units were plotted against the compound concentrations using Graphpad software. IC50 values of the compounds were defined as the concentration required in reducing the luminescent units by 50%. The Kb values were calculated by feeding the concentration of the agonist used in the assay and its EC50 value in the same software.
Literature References: Karadsheh M. S., Shah M. S., Tang X., Macdonald R. L. and Stitzel J. A. Functional characterization of mouse α4β2 nicotinic acetylcholine receptors stably expressed in HEK293T cells. J. Neurochem. 2004, 91, 1138-1150.

A short description of series [3]: Rodent Pharmacokinetic Study. The settings on record: Wistar, in vivo, Wister rat male; for AUC(0-t) / Cmax / Tmax / half-life: 5 mg/kg; for bioavailability: P.O 5 mg/kg vs I.V 5 mg/kg. As for the experimental part: Rodent Pharmacokinetic Study
Male wistar rats (230-280 grams) obtained from NIN (National Institute of Nutrition, Hyderabad, India) were used as an experimental animal. Three to five animals were housed in each cage. Animals were kept fasted over night and maintained on a 12 hours light/dark cycle. […]
At each time point blood was collected by jugular vein. Plasma was stored frozen at −20° C. until analysis. The concentrations of the NCE compound in plasma were determined using LC-MS/MS method. Schedule time points: Pre dose 0.25, 0.5, 1, 1.5, 2, 3, 4, 6, 8, 10, 12 and 24 hours after dosing (n=3). The NCE compounds were quantified in plasma by validated LC-MS/MS method using solid phase extraction technique. NCE compounds were quantified in the calibration range of 1-2000 ng/mL in plasma. Study samples were analyzed using calibration samples in the batch and quality control samples spread across the batch. Pharmacokinetic parameters Cmax, Tmax, AUCs, T112 and Bioavailability were calculated by non-compartmental model using software WinNonlin version 5.0.1.

Series [4] is described as follows: Rodent Brain Penetration Study. As to conditions: in vivo; Wistar rat male, P.O, 5 mg/kg; read-out: Steady State Brain Penetration (Cb/Cp). Here is the method:
Rodent Brain Penetration Study
Male Wistar rats (230-280 grams) obtained from NIN (National Institute of Nutrition, Hyderabad, India) was used as an experimental animal. Three animals were housed in each cage. Animals were given water and food ad libitum throughout the experiment, and maintained on a 12 hours light/dark cycle.
NCE compound was dissolved in water and administered orally. At Tmax (0.5, 1.0 and 2.0) animals were sacrificed to collect the plasma and brain tissue and was homogenized. Plasma and Brain was stored frozen at −20° C. until analysis. The concentrations of the NCE compound in plasma and Brain were determined using LC-MS/MS method.
The NCE compounds were quantified in plasma and brain homogenate by validated LC-MS/MS method using solid phase extraction technique. NCE compounds were quantified in the calibration range of 1-500 ng/mL in plasma and brain homogenate. Study samples were analyzed using calibration samples in the batch and quality control samples spread across the batch. Extents of brain-blood ratio were calculated (Cb/Cp).

Series [5] has as its system Male Wister rats. As to the kind of experiment: Reversal of Formalin Induced Nociception. Format: in vivo. As to conditions: rat, p.o., formalin 5% v/v subplantar. Here is the method: Reversal of Formalin Induced Nociception
The anti-nociceptive properties of compounds of this invention were evaluated using a model of pain: the Formalin Induced Nociception model. Male Wister rats (230-280 grams) obtained from N. I. N. (National Institute of Nutrition, Hyderabad, India) was used as experimental animals.
Rats were habituated for 20 minutes in the arena before the experiment was started. Duration of licks, bites and flinches were noted from 0-10 minutes and 20-35 minutes after administration of formalin, subplantar into the right hind paw at concentrations of 5% v/v. 50 μL of water for injection was injected into the right hind paw of the rats of the sham group. Compounds of this invention were administered orally prior to formalin administration.

Setting [6] is: antagonist mode, fixed concentration of agonist epibatidine, CHO cells, luminescence, read-out: Kb.

T1 sequence (P43681 29-627): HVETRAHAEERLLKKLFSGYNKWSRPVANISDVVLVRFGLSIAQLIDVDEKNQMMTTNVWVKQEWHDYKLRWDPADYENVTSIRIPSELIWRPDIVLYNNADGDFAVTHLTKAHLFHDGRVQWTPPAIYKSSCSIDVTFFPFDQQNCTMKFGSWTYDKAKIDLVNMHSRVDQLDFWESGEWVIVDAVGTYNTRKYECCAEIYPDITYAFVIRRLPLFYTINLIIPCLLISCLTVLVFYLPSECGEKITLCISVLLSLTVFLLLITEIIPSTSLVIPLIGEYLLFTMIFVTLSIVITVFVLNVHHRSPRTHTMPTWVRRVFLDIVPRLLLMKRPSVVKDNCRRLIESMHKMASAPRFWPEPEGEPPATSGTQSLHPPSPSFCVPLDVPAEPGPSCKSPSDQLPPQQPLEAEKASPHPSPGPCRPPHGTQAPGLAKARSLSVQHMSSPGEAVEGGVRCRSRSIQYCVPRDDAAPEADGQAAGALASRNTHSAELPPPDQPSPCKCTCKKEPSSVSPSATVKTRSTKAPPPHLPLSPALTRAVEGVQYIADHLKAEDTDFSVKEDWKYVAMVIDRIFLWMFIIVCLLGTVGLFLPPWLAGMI
T1 sequence (P17787 26-502): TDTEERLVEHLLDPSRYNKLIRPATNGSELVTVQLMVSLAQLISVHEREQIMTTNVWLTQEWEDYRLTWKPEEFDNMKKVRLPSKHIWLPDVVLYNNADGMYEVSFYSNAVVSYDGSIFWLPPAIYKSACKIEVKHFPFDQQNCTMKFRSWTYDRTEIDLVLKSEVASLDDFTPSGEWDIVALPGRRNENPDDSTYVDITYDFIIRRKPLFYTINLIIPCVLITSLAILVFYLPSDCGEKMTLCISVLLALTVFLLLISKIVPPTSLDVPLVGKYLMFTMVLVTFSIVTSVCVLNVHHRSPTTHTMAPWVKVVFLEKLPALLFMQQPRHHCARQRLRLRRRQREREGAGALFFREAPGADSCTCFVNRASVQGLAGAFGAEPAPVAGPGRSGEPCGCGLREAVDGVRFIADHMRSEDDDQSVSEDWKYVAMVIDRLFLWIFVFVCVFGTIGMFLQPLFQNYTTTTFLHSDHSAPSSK

Turning to `CN1C(COc2cccnc2)CC2CC21` (centres unmarked) [Example 2, 2-Methyl-3-(pyridin-3-yloxymethyl)-2-azabicyclo[3.1.0]hexane], the Ki in series [1] (read-out: Ki) amounted to 5.5 nM. Moreover, the Kb in series [2] was found to be 0.4 nM.

Regarding `Cc1ncccc1OCC1CC2CC2N1` (centres unmarked) [Example 3, 3-(2-Methylpyridin-3-yl-oxymethyl)-2-azabicyclo[3.1.0]hexane dihydrochloride], in series [1] (read-out: Ki), the Ki was determined as 1000 nM.

On to `Cl.Cl.Clc1ncccc1OCC1CC2CC2N1` (centres unmarked) [Example 4, 3-(2-Chloropyridin-3-yloxymethyl)-2-azabicyclo[3.1.0]hexane dihydrochloride], for which the Ki in series [1] (read-out: Ki) came out at 17.5 nM. In addition, in series [3] (iv, I.V), the AUC(0-t) was found to be 4160 ± 878 ng·h/mL, the concentration peaked (Cmax) at 2600 ± 42 ng/mL, the Tmax came to 4.8 min and the half-life is 93 ± 15 min. The compound also showed a bioavailability in series [3] (po) of 54 ± 23%. Further, in series [3] (po, P.O), the AUC(0-t) came to 2160 ± 658 ng·h/mL, the concentration peaked (Cmax) at 921 ± 268 ng/mL, the Tmax was 15 min and the half-life is 129 ± 30.6 min. In addition, in series [4], the Kp turned out to be 3.6 ± 0.99.

Consider `Cl.Cl.Clc1ccc(OCC2CC3CC3N2)cn1` (centres unmarked) [Example 5, 3-(2-Chloropyridin-5-yloxymethyl)-2-azabicyclo[3.1.0]hexane dihydrochloride], for which the Ki in series [1] is 1.5 nM. In series [3] (iv, I.V), the AUC(0-t) came out at 5380 ± 821 ng·h/mL, the highest level (Cmax) was 2720 ± 588 ng/mL, the Tmax is 4.8 min and the half-life was 151 ± 25.8 min. In series [3] (po), this compound yielded a bioavailability of 66 ± 12%. Besides, in series [3] (po, P.O), the AUC(0-t) is 3510 ± 657 ng·h/mL, the Cmax stood at 1910 ± 675 ng/mL, the Tmax was determined as 15 min and the half-life was 200 ± 36 min. In series [4], the Kp amounted to 2.34 ± 0.25.

As to `Cl.Cl.Fc1ccc(OCC2CC3CC3N2)cn1` (centres unmarked) [Example 6, 3-(2-Fluoropyridin-5-yloxymethyl)-2-azabicyclo[3.1.0]hexane dihydrochloride], in series [5], the “Dose (reversal of formalin induced nociception)” value is “≦30 mg/kg, p.o”. Moreover, the Ki in series [1] (read-out: Ki) was found to be 3.9 nM.

Turning to `Brc1cncc(OCC2CC3CC3N2)c1` (centres unmarked) [Example 8, 3-(5-Bromopyridin-3-yloxymethyl)-2-azabicyclo[3.1.0]hexane tartrate], the Ki in series [1] (read-out: Ki) was found to be 6.4 nM.

In the case of `Fc1ncccc1OCC1CC2CC2N1` (centres unmarked) [Example 9, 3-(2-Fluoropyridin-3-yloxymethyl)-2-azabicyclo[3.1.0]hexane tartrate], the Ki in series [1] (read-out: Ki) was determined as 17.4 nM.

`CN1C(COc2cccnc2F)CC2CC21` (centres unmarked) [Example 10, 3-(2-Fluoropyridin-3-yloxymethyl)-2-methyl-2-azabicyclo[3.1.0]hexane tartrate]: the Ki in series [1] (read-out: Ki) turned out to be 31.9 nM.

`CN1C(COc2cccnc2Cl)CC2CC21` (centres unmarked) [Example 11, 3-(2-Chloropyridin-3-yloxymethyl)-2-methyl-2-azabicyclo[3.1.0]hexane]: the Ki in series [1] (read-out: Ki) came out at 28.1 nM. Moreover, the Kb in series [2] came out at 13.5 nM.

In the case of `Cc1ncccc1OCC1CC2CC2N1C` (centres unmarked) [Example 12, 2-Methyl-3-(2-methylpyridin-3-yloxymethyl)-2-azabicyclo[3.1.0]hexane], the Ki in series [1] (read-out: Ki) came out at 231 nM.

Consider `Cc1ccc(OCC2CC3CC3N2C)cn1` (centres unmarked) [Example 13, 2-Methyl-3-(2-methylpyridin-5-yloxymethyl)-2-azabicyclo[3.1.0]hexane], for which the Ki in series [1] worked out at 0.3 nM. Also, the Kb in series [2] (setting [6]) is 5 nM.

With `CN1C(COc2ccc(Cl)nc2)CC2CC21` (centres unmarked) [Example 14, 3-(2-Chloropyridin-5-yloxymethyl)-2-methyl-2-azabicyclo[3.1.0]hexane], in series [1] (read-out: Ki), the Ki was determined as 3.4 nM.

For the compound `CN1C(COc2ccc(F)nc2)CC2CC21` (centres unmarked) [Example 15, 3-(2-Fluoropyridin-5-yloxymethyl)-2-methyl-2-azabicyclo[3.1.0]hexane], the Ki in series [1] (read-out: Ki) is 1.1 nM.

For `CN1C(COc2cncc(Cl)c2)CC2CC21` (centres unmarked) [Example 16, 3-(5-Chloropyridin-3-yloxymethyl)-2-methyl-2-azabicyclo[3.1.0]hexane], in series [1] (read-out: Ki), the Ki was determined as 0.37 nM. In addition, the Kb in series [2] was 0.4 nM.

Regarding `CN1C(COc2cncc(Br)c2)CC2CC21` (centres unmarked) [Example 17, 3-(5-Bromopyridin-3-yloxymethyl)-2-methyl-2-azabicyclo[3.1.0]hexane dihydrochloride], the Ki in series [1] (read-out: Ki) is 4.2 nM.

As to `Cc1ccc(OCC2CC3CC3N2)cn1` (centres unmarked) [Example 18, 3-(2-Methylpyridin-5-yloxymethyl)-2-azabicyclo[3.1.0]hexane], the Ki in series [1] amounted to 26.1 nM. Also, in series [2] (setting [6]), the Kb worked out at 22 nM.

Turning to `c1cncc(OCC2CCC3CC3N2)c1` (centres unmarked) [Example 19, 3-(Pyridin-3-yloxymethyl)-2-azabicyclo[4.1.0]heptane hydrochloride], the Ki in series [1] (read-out: Ki) is 8.2 nM.

On to `Clc1cncc(OCC2CCC3CC3N2)c1` (centres unmarked) [Example 20, 3-(5-Chloropyridin-3-yloxymethyl)-2-azabicyclo[4.1.0]heptane hydrochloride], for which, in series [1] (read-out: Ki), the Ki stood at 216 nM.
